Data taken from US20250092084A1, “C7, C12, AND C16 SUBSTITUTED NEUROACTIVE STEROIDS AND THEIR METHODS OF USE” (Sage Therapeutics, Inc., priority 2016, published 2025).

Each compound was assayed against rat brain cortical membranes (GABA receptor complex, [35S]-TBPS binding) (assay: Steroid inhibition of [35S]-TBPS binding). Settings: 3 nM [35S]-TBPS, in the presence of 5 mM GABA.
Method: [^35S]-t-Butylbicyclophosphorothionate (TBPS) binding assays using rat brain cortical membranes in the presence of 5 mM GABA has been described (Gee et al, J Pharmacol. Exp. Ther. 1987, 241, 346-353; Hawkinson et al, Mol. Pharmacol. 1994, 46, 977-985; Lewin, A. H et al., Mol. Pharmacol. 1989, 35, 189-194).
Briefly, cortices are rapidly removed following decapitation of carbon dioxide-anesthetized Sprague-Dawley rats (200-250 g). The cortices are homogenized in 10 volumes of ice-cold 0.32 M sucrose using a glass/teflon homogenizer and centrifuged at 1500×g for 10 min at 4° C. The resultant supernatants are centrifuged at 10,000×g for 20 min at 4° C. to obtain the P2 pellets. The P2 pellets are resuspended in 200 mM NaCl/50 mM Na—K phosphate pH 7.4 buffer and centrifuged at 10,000×g for 10 min at 4° C. This washing procedure is repeated twice and the pellets are resuspended in 10 volumes of buffer. Aliquots ([…]) of the membrane suspensions are incubated with 3 nM [^35S]-TBPS and […] aliquots of test drug dissolved in dimethyl sulfoxide (DMSO) (final 0.5%) in the presence of 5 mM GABA. The incubation is brought to a final volume of 1.0 mL with buffer. Nonspecific binding is determined in the presence of […] and ranged from 15 to 25%. Following a 90 min incubation at room temp, the assays are terminated by filtration through glass fiber filters (Schleicher and Schuell No. 32) using a cell harvester (Brandel) and rinsed three times with ice-cold buffer. Filter bound radioactivity is measured by liquid scintillation spectrometry. Non-linear curve fitting of the overall data for each drug averaged for each concentration is done using Prism (GraphPad). […] The concentration of test compound producing 50% inhibition (IC50) of specific binding and the maximal extent of inhibition (Imax) are determined for the individual experiments with the same model used for the overall data and then the means±SEMs of the individual experiments are calculated.
Various compounds are or can be screened to determine their potential as modulators of [^35S]-TBPS binding in vitro. These assays are or can be performed in accordance with the above discussed procedures.
For `CC(C)[C@@H]1C[C@H]2[C@@H]3CC[C@H]4C[C@](C)(O)CC[C@]4(C)[C@H]3CC[C@]2(C)[C@H]1C(=O)Cn1cc2ccncc2n1` [Compound 76], the IC50 was ≥ 500 nM. For `COc1ccc2nn(CC(=O)[C@H]3[C@H](C)C[C@H]4[C@@H]5CC[C@H]6C[C@](C)(O)CC[C@]6(C)[C@H]5CC[C@@]43C)nc2c1` [Compound 67], the IC50 was 10 to 50 nM. With `COc1ccc2nnn(CC(=O)[C@H]3[C@H](C)C[C@H]4[C@@H]5CC[C@H]6C[C@](C)(O)CC[C@]6(C)[C@H]5CC[C@@]43C)c2c1` [Compound 68] the IC50 was 10 to 50 nM. For `CC(=O)[C@H]1[C@H](C)C[C@H]2[C@@H]3CC[C@H]4C[C@](C)(O)CC[C@@H]4[C@H]3CC[C@@]21C` (stereo in doubt) [Compound 91], the IC50 was 10 to 50 nM. `Cc1nnn(CC(=O)[C@H]2CC[C@H]3[C@@H]4[C@H](C)C[C@H]5C[C@](C)(O)CC[C@]5(C)[C@H]4CC[C@]23C)n1` [Compound 34] was tested, and the IC50 was ≥ 500 nM. In the case of `CO[C@@H]1C[C@H]2[C@@H](CC[C@H]3C[C@](C)(O)CC[C@@]32C)[C@@H]2CC[C@H](C(=O)Cn3ncc4ccncc43)[C@@]12C` [Compound 63], the IC50 is reported as 100 to 500 nM. With `C[C@@]1(O)CC[C@@]2(C)[C@@H](C[C@@H](O)[C@@H]3[C@@H]2CC[C@]2(C)[C@@H](C(=O)Cn4cc(C#N)cn4)CC[C@@H]32)C1` [Compound 26] the IC50 was ≥ 500 nM. In the case of `CC[C@@H]1C[C@H]2[C@@H]3CC[C@H]4C[C@](C)(O)CC[C@]4(C)[C@H]3CC[C@]2(C)[C@H]1C(C)=O` [Compound 65], the IC50 is reported as ≥ 500 nM. `CC(=O)[C@H]1CC[C@H]2[C@@H]3[C@@H](C)C[C@H]4C[C@](C)(O)CC[C@]4(C)[C@H]3CC[C@]12C` [Compound 6] was tested, and the IC50 was ≥ 500 nM. For `CC[C@@H]1C[C@H]2[C@@H]3CC[C@H]4C[C@](C)(O)CC[C@]4(C)[C@H]3CC[C@]2(C)[C@H]1C(=O)Cn1cc(C#N)cn1` [Compound 74], the IC50 was ≥ 500 nM. In the case of `C[C@@H]1C[C@H]2[C@@H]3CC[C@H]4C[C@](C)(O)CC[C@]4(C)[C@H]3CC[C@]2(C)[C@H]1C(=O)Cn1cc(C#N)cn1` [Compound 66], the IC50 is reported as 10 to 50 nM. Compound `CO[C@@H]1C[C@H]2[C@@H](CC[C@@H]3C[C@](C)(O)CC[C@@H]32)[C@@H]2CC[C@H](C(=O)Cn3nnnc3C)[C@@]12C` [Compound 59] has an IC50 of 100 to 500 nM. `CO[C@H]1CC[C@H]2[C@@H]3CC[C@H]4C[C@](C)(O)CC[C@]4(C)[C@H]3C[C@@H](OC)[C@]12C` [Compound 42] was tested, and the IC50 was 100 to 500 nM. Work on `CC(=O)[C@H]1[C@H](C)C[C@H]2[C@@H]3CC[C@H]4C[C@](C)(O)CC[C@]4(C)[C@H]3CC[C@@]21C` [Compound 64] yielded an IC50 of 100 to 500 nM. `CO[C@@H]1C[C@H]2[C@@H](CC[C@@H]3C[C@](C)(O)CC[C@@H]32)[C@@H]2CC[C@H](C(C)=O)[C@@]12C` [Compound 56] gave an IC50 of 50 to 100 nM. In the case of `CO[C@H]1C[C@H]2C[C@](C)(O)CC[C@]2(C)[C@H]2CC[C@]3(C)[C@@H](C(C)=O)CC[C@H]3[C@H]12` [Compound 30], the IC50 is reported as ≥ 500 nM. For `CO[C@H]1CC[C@H]2[C@@H]3[C@H](C)C[C@H]4C[C@](C)(O)CC[C@]4(C)[C@H]3CC[C@]12C` [Compound 3], the IC50 was ≥ 500 nM. With `CO[C@H]1C[C@H]2[C@@H](CC[C@H]3C[C@](C)(O)CC[C@@]32C)[C@@H]2CC[C@@H](C(C)=O)[C@@]12C` [Compound 51] the IC50 was ≥ 500 nM. For `C[C@@H]1C[C@H]2C[C@](C)(O)CC[C@]2(C)[C@H]2CC[C@]3(C)[C@@H](C(=O)Cn4ncc5ccncc54)CC[C@H]3[C@H]12` [Compound 10], the IC50 was ≥ 500 nM. With `COC[C@@H]1C[C@H]2C[C@](C)(O)CC[C@]2(C)[C@H]2CC[C@]3(C)[C@@H](C(=O)Cn4ncc5ccncc54)CC[C@H]3[C@H]12` [Compound 23] the IC50 was ≥ 500 nM. `C[C@@]1(O)CC[C@@]2(C)[C@@H](CC[C@@H]3[C@@H]2C[C@@H](O)[C@]2(C)[C@@H](C(=O)Cn4cc(C#N)cn4)CC[C@@H]32)C1` [Compound 47] was tested, and the IC50 was ≥ 500 nM. `COC[C@@H]1C[C@H]2C[C@](C)(O)CC[C@]2(C)[C@H]2CC[C@]3(C)[C@@H](C(=O)Cn4nc5ccc(OC)cc5n4)CC[C@H]3[C@H]12` [Compound 18] was tested, and the IC50 was ≥ 500 nM. With `CO[C@@H]1C[C@H]2[C@@H](CC[C@H]3C[C@](C)(O)CC[C@@]32C)[C@@H]2CC[C@H](C#N)[C@@]12C` [Compound 41] the IC50 was 100 to 500 nM. `Cc1nnnn1CC(=O)[C@H]1CC[C@H]2[C@@H]3[C@H](C)C[C@H]4C[C@](C)(O)CC[C@]4(C)[C@H]3CC[C@]12C` [Compound 36] was tested, and the IC50 was ≥ 500 nM. For `COC[C@H]1C[C@H]2C[C@](C)(O)CC[C@]2(C)[C@H]2CC[C@]3(C)[C@@H](C(=O)Cn4cc(C#N)cn4)CC[C@H]3[C@H]12` [Compound 13], the IC50 was ≥ 500 nM. For `CO[C@H]1C[C@H]2[C@@H](CC[C@H]3C[C@](C)(O)CC[C@@]32C)[C@@H]2CC[C@H](C(=O)Cn3ncc4ccncc43)[C@@]12C` [Compound 55], the IC50 was ≥ 500 nM. With `CO[C@@H]1C[C@H]2[C@@H](CC[C@H]3C[C@](C)(O)CC[C@@]32C)[C@@H]2CC[C@H](C(C)=O)[C@@]12C` [Compound 43] the IC50 was 100 to 500 nM. With `COC[C@@H]1C[C@H]2C[C@](C)(O)CC[C@]2(C)[C@H]2CC[C@]3(C)[C@@H](C(=O)Cn4nnc5ccc(OC)cc54)CC[C@H]3[C@H]12` [Compound 19] the IC50 was ≥ 500 nM. `C[C@@]1(O)CC[C@@]2(C)[C@@H](CC[C@@H]3[C@@H]2C[C@@H](O)[C@]2(C)[C@@H](C#N)CC[C@@H]32)C1` [Compound 40] was tested, and the IC50 was ≥ 500 nM. `COc1ccc2nn(CC(=O)[C@H]3[C@H](C(C)C)C[C@H]4[C@@H]5CC[C@H]6C[C@](C)(O)CC[C@]6(C)[C@H]5CC[C@@]43C)nc2c1` [Compound 77] was tested, and the IC50 was ≥ 500 nM. `CC[C@@H]1C[C@H]2[C@@H]3CC[C@H]4C[C@](C)(O)CC[C@]4(C)[C@H]3CC[C@]2(C)[C@H]1C(=O)Cn1nnc2cc(OC)ccc21` [Compound 72] was tested, and the IC50 was ≥ 500 nM.
